{"source": "patent US10118935B2", "about": "“Melampomagnolide B dimers” (priority 2014, dated 2018)", "key": {"SF-539": {"tested_on": "SF-539", "assay": "NCI 60 cell line five dose, CNS Cancer"}, "CAKI-1": {"tested_on": "CAKI-1", "assay": "NCI 60 cell line five dose, Renal Cancer"}, "OVCAR-4": {"tested_on": "OVCAR-4", "assay": "NCI 60 cell line five dose, Ovarian Cancer"}, "HCC-2998": {"tested_on": "HCC-2998", "assay": "NCI 60 cell line five dose, Colon Cancer"}, "K-562": {"tested_on": "K-562", "assay": "NCI 60 cell line five dose, Leukemia"}, "SN12C": {"tested_on": "SN12C", "assay": "NCI 60 cell line five dose, Renal Cancer"}, "NCI-H226": {"tested_on": "NCI-H226", "assay": "NCI 60 cell line five dose, Non-Small Cell Lung Cancer"}, "SF-295": {"tested_on": "SF-295", "assay": "NCI 60 cell line five dose, CNS Cancer"}, "CCRF-CEM": {"tested_on": "CCRF-CEM", "assay": "NCI 60 cell line five dose, Leukemia"}, "RXF 393": {"tested_on": "RXF 393", "assay": "NCI 60 cell line five dose, Renal Cancer"}, "SK-MEL-28": {"tested_on": "SK-MEL-28", "assay": "NCI 60 cell line five dose, Melanoma", "details": "SK-MEL-28"}, "SR": {"tested_on": "SR", "assay": "NCI 60 cell line five dose, Leukemia"}, "PC-3": {"tested_on": "PC-3", "assay": "NCI 60 cell line five dose, Prostate Cancer"}, "786-0": {"tested_on": "786-0", "assay": "NCI 60 cell line five dose, Renal Cancer"}, "M14": {"tested_on": "M14", "assay": "NCI 60 cell line five dose, Melanoma"}, "SF-268": {"tested_on": "SF-268", "assay": "NCI 60 cell line five dose, CNS Cancer"}, "SNB-19": {"tested_on": "SNB-19", "details": "for GI50 / TGI: SNB-19"}, "KM12": {"tested_on": "KM12", "assay": "NCI 60 cell line five dose, Colon Cancer"}, "A498": {"tested_on": "A498", "assay": "NCI 60 cell line five dose, Renal Cancer"}, "NCI-H460": {"tested_on": "NCI-H460", "assay": "NCI 60 cell line five dose, Non-Small Cell Lung Cancer"}, "HCT-15": {"tested_on": "HCT-15", "assay": "NCI 60 cell line five dose, Colon Cancer"}, "COLO 205": {"tested_on": "COLO 205", "assay": "NCI 60 cell line five dose, Colon Cancer"}, "T-47D": {"tested_on": "T-47D", "assay": "NCI 60 cell line five dose, Breast Cancer"}, "UACC-62": {"tested_on": "UACC-62", "assay": "NCI 60 cell line five dose, Melanoma"}}, "data": [{"smiles": "C=C1C(=O)O[C@H]2[C@H]1CC/C(COC(=O)CCC(=O)NCCCCCCCCNC(=O)CCC(=O)OC/C1=C/CC[C@@]3(C)O[C@H]3[C@H]3OC(=O)C(=C)[C@@H]3CC1)=C\\CC[C@@]1(C)O[C@@H]21", "note": "[JVM 2-87, bis(((1aR,7aS,10aS,10bS,E)-1a-Methyl-8-methylene-9-oxo-1a,2,3,6,7,7a,8,9,10a,1b-decahydrooxireno[2′,3′:9,10]cyclodeca[1,2-b]furan-5-yl)methyl)4,4′-(octane-1,8-diylbis(azanediyl))bis(4-oxobutanoate)]", "values": [{"measurement": "GI50", "setting": "SF-539", "result": 2.43, "unit": "µM"}, {"measurement": "TGI", "setting": "SF-539", "result": 5.76, "unit": "µM"}, {"measurement": "GI50", "setting": "CAKI-1", "result": 12.7, "unit": "µM"}, {"measurement": "TGI", "setting": "CAKI-1", "result": 32.0, "unit": "µM"}, {"measurement": "GI50", "setting": "OVCAR-4", "result": 1.64, "unit": "µM"}, {"measurement": "TGI", "setting": "OVCAR-4", "result": 3.92, "unit": "µM"}, {"measurement": "GI50", "setting": "HCC-2998", "result": 4.12, "unit": "µM"}, {"measurement": "TGI", "setting": "HCC-2998", "result": 16.7, "unit": "µM"}, {"measurement": "GI50", "setting": "K-562", "result": 0.97, "unit": "µM"}, {"measurement": "TGI", "setting": "K-562", "result": 12.9, "unit": "µM"}, {"measurement": "GI50", "setting": "SN12C", "result": 3.74, "unit": "µM"}, {"measurement": "TGI", "setting": "SN12C", "result": 14.8, "unit": "µM"}, {"measurement": "GI50", "setting": "NCI-H226", "result": 2.06, "unit": "µM"}, {"measurement": "TGI", "setting": "NCI-H226", "result": 4.95, "unit": "µM"}, {"measurement": "GI50", "setting": "SF-295", "result": 15.1, "unit": "µM"}, {"measurement": "TGI", "setting": "SF-295", "result": 29.3, "unit": "µM"}, {"measurement": "GI50", "setting": "CCRF-CEM", "result": 0.32, "unit": "µM"}, {"measurement": "TGI", "setting": "CCRF-CEM", "result": 1.48, "unit": "µM"}, {"measurement": "GI50", "setting": "RXF 393", "result": 0.85, "unit": "µM"}, {"measurement": "TGI", "setting": "RXF 393", "result": 2.61, "unit": "µM"}, {"measurement": "GI50", "setting": "SK-MEL-28", "result": 1.65, "unit": "µM"}, {"measurement": "TGI", "setting": "SK-MEL-28", "result": 3.23, "unit": "µM"}, {"measurement": "GI50", "setting": "SR", "result": 0.41, "unit": "µM"}, {"measurement": "TGI", "setting": "SR", "result": 2.10, "unit": "µM"}, {"measurement": "GI50", "setting": "PC-3", "result": 3.64, "unit": "µM"}, {"measurement": "TGI", "setting": "PC-3", "result": 13.7, "unit": "µM"}, {"measurement": "CC50", "setting": "PC-3; read-out: LC50", "result": 40.7, "unit": "µM"}, {"measurement": "GI50", "setting": "786-0", "result": 1.62, "unit": "µM"}, {"measurement": "TGI", "setting": "786-0", "result": 3.29, "unit": "µM"}, {"measurement": "GI50", "setting": "M14", "result": 1.79, "unit": "µM"}, {"measurement": "TGI", "setting": "M14", "result": 3.79, "unit": "µM"}, {"measurement": "GI50", "setting": "SF-268", "result": 3.34, "unit": "µM"}, {"measurement": "TGI", "setting": "SF-268", "result": 11.6, "unit": "µM"}, {"measurement": "CC50", "setting": "SNB-19", "result": "> 100", "unit": "µM"}, {"measurement": "GI50", "setting": "SNB-19", "result": 4.15, "unit": "µM"}, {"measurement": "TGI", "setting": "SNB-19", "result": 19.9, "unit": "µM"}, {"measurement": "GI50", "setting": "KM12", "result": 9.46, "unit": "µM"}, {"measurement": "TGI", "setting": "KM12", "result": 22.9, "unit": "µM"}, {"measurement": "GI50", "setting": "A498", "result": 6.72, "unit": "µM"}, {"measurement": "TGI", "setting": "A498", "result": 20.8, "unit": "µM"}, {"measurement": "GI50", "setting": "NCI-H460", "result": 5, "unit": "µM"}, {"measurement": "TGI", "setting": "NCI-H460", "result": 19.9, "unit": "µM"}, {"measurement": "GI50", "setting": "HCT-15", "result": 3.6, "unit": "µM"}, {"measurement": "TGI", "setting": "HCT-15", "result": 15.6, "unit": "µM"}, {"measurement": "GI50", "setting": "COLO 205", "result": 1.35, "unit": "µM"}, {"measurement": "TGI", "setting": "COLO 205", "result": 3.14, "unit": "µM"}, {"measurement": "GI50", "setting": "T-47D", "result": 1.51, "unit": "µM"}, {"measurement": "TGI", "setting": "T-47D", "result": 3.86, "unit": "µM"}, {"measurement": "GI50", "setting": "UACC-62", "result": 1.97, "unit": "µM"}, {"measurement": "TGI", "setting": "UACC-62", "result": 4.20, "unit": "µM"}]}, {"smiles": "C=C1C(=O)O[C@H]2[C@H]1CC/C(COC(=O)CCC(=O)NCCCCCCCCCNC(=O)CCC(=O)OC/C1=C/CC[C@@]3(C)O[C@H]3[C@H]3OC(=O)C(=C)[C@@H]3CC1)=C\\CC[C@@]1(C)O[C@@H]21", "note": "[JVM 2-92, bis(((1aR,7aS,10aS,10bS,E)-1a-Methyl-8-methylene-9-oxo-1a,2,3,6,7,7a,8,9,10a,10b-decahydrooxireno[2′,3′:9,10]cyclodeca[1,2-b]furan-5-yl)methyl)4,4′-(nonane-1,9-diylbis(azanediyl))bis (4-oxobutanoate)]", "values": [{"measurement": "GI50", "setting": "SF-539", "result": 1.85, "unit": "µM"}, {"measurement": "TGI", "setting": "SF-539", "result": 4.29, "unit": "µM"}, {"measurement": "GI50", "setting": "CAKI-1", "result": 10.5, "unit": "µM"}, {"measurement": "TGI", "setting": "CAKI-1", "result": 22.8, "unit": "µM"}, {"measurement": "GI50", "setting": "OVCAR-4", "result": 1.48, "unit": "µM"}, {"measurement": "TGI", "setting": "OVCAR-4", "result": 3.46, "unit": "µM"}, {"measurement": "GI50", "setting": "HCC-2998", "result": 2.25, "unit": "µM"}, {"measurement": "TGI", "setting": "HCC-2998", "result": 4.70, "unit": "µM"}, {"measurement": "GI50", "setting": "K-562", "result": 0.45, "unit": "µM"}, {"measurement": "TGI", "setting": "K-562", "result": 3.21, "unit": "µM"}, {"measurement": "GI50", "setting": "SN12C", "result": 2.69, "unit": "µM"}, {"measurement": "TGI", "setting": "SN12C", "result": 10.3, "unit": "µM"}, {"measurement": "GI50", "setting": "NCI-H226", "result": 1.9, "unit": "µM"}, {"measurement": "TGI", "setting": "NCI-H226", "result": 4.05, "unit": "µM"}, {"measurement": "GI50", "setting": "SF-295", "result": 7.68, "unit": "µM"}, {"measurement": "TGI", "setting": "SF-295", "result": 21.9, "unit": "µM"}, {"measurement": "GI50", "setting": "CCRF-CEM", "result": 0.28, "unit": "µM"}, {"measurement": "TGI", "setting": "CCRF-CEM", "result": 1.00, "unit": "µM"}, {"measurement": "GI50", "setting": "RXF 393", "result": 1.01, "unit": "µM"}, {"measurement": "TGI", "setting": "RXF 393", "result": 2.50, "unit": "µM"}, {"measurement": "GI50", "setting": "SK-MEL-28", "result": 1.47, "unit": "µM"}, {"measurement": "TGI", "setting": "SK-MEL-28", "result": 3.03, "unit": "µM"}, {"measurement": "GI50", "setting": "SR", "result": 0.33, "unit": "µM"}, {"measurement": "TGI", "setting": "SR", "result": 1.17, "unit": "µM"}, {"measurement": "GI50", "setting": "PC-3", "result": 2.53, "unit": "µM"}, {"measurement": "TGI", "setting": "PC-3", "result": 7.31, "unit": "µM"}, {"measurement": "GI50", "setting": "786-0", "result": 1.49, "unit": "µM"}, {"measurement": "TGI", "setting": "786-0", "result": 3.00, "unit": "µM"}, {"measurement": "GI50", "setting": "M14", "result": 1.65, "unit": "µM"}, {"measurement": "TGI", "setting": "M14", "result": 3.64, "unit": "µM"}, {"measurement": "GI50", "setting": "SF-268", "result": 2.92, "unit": "µM"}, {"measurement": "TGI", "setting": "SF-268", "result": 10.1, "unit": "µM"}, {"measurement": "CC50", "setting": "SNB-19", "result": "> 100", "unit": "µM"}, {"measurement": "GI50", "setting": "SNB-19", "result": 3.38, "unit": "µM"}, {"measurement": "TGI", "setting": "SNB-19", "result": 16.3, "unit": "µM"}, {"measurement": "GI50", "setting": "KM12", "result": 4.6, "unit": "µM"}, {"measurement": "TGI", "setting": "KM12", "result": 17.1, "unit": "µM"}, {"measurement": "GI50", "setting": "A498", "result": 2.72, "unit": "µM"}, {"measurement": "TGI", "setting": "A498", "result": 8.30, "unit": "µM"}, {"measurement": "GI50", "setting": "NCI-H460", "result": 2.18, "unit": "µM"}, {"measurement": "TGI", "setting": "NCI-H460", "result": 5.17, "unit": "µM"}, {"measurement": "GI50", "setting": "HCT-15", "result": 2.63, "unit": "µM"}, {"measurement": "TGI", "setting": "HCT-15", "result": 11.9, "unit": "µM"}, {"measurement": "GI50", "setting": "COLO 205", "result": 1.22, "unit": "µM"}, {"measurement": "TGI", "setting": "COLO 205", "result": 3.16, "unit": "µM"}, {"measurement": "GI50", "setting": "T-47D", "result": 1.49, "unit": "µM"}, {"measurement": "TGI", "setting": "T-47D", "result": 4.48, "unit": "µM"}, {"measurement": "GI50", "setting": "UACC-62", "result": 1.69, "unit": "µM"}, {"measurement": "TGI", "setting": "UACC-62", "result": 3.78, "unit": "µM"}]}]}
